Laboratory results reported in patent US10750742B2, “Pesticidally active pyrazole derivatives” (SYNGENTA PARTICIPATIONS AG, priority 2015, dated 2020).
Where two headings read alike, the source gives them in different places.

Assays:
Format in all cases: in vivo
Myzus persicae [1] = test: Myzus persicae (green peach aphid), sunflower leaf disc spray test; details: foliar, 144 h
Protocol: (§1) Myzus persicae (Green Peach Aphid):
Sunflower leaf discs were placed on agar in a 24-well microtiter plate and sprayed with test solutions at an application rate of 200 ppm. After drying, the leaf discs were infested with an aphid population of mixed ages. After an incubation period of 6 DAT, samples were checked for mortality. The following compounds gave at least 80% mortality of Myzus persicae: compounds 1,2, 3, 4, 5, 6, 11, 12, 15, 17, 18, 19, 20, 23, 24, 25, 26, 27, 30, 32, 33, 34 35, 41, 43, 44, 47, 50, 55, 58, 59, 60, 61, 62, 63, 64, 65 and 66.

Spodoptera littoralis = Spodoptera littoralis (Egyptian cotton leaf worm), cotton leaf disc spray test; details: foliar, 72 h, read-out: control (at least one of mortality, anti-feedant effect, growth inhibition); for percent control (mortality, anti-feedant effect or growth inhibition) at 200 ppm: application rate 200 ppm, L1 larvae, 3 days after infestation
Protocol: Spodoptera littoralis (Egyptian Cotton Leaf Worm)
Cotton leaf discs were placed on agar in 24-well microtiter plates and sprayed with aqueous test solutions prepared from 10′000 ppm DMSO stock solutions. After drying the leaf discs were infested with five L1 larvae. The samples were assessed for mortality, anti-feedant effect, and growth inhibition in comparison to untreated samples 3 days after infestation. Control of Spodoptera littoralis by a test sample is when at least one of mortality, anti-feedant effect, and growth inhibition is higher than the untreated sample.

Plutella xylostella = Plutella xylostella (diamond back moth), artificial diet test; details: 120 h, read-out: control (mortality and growth inhibition)
Protocol: Plutella xylostella (Diamond Back Moth):
24-well microtiter plates with artificial diet were treated with aqueous test solutions prepared from 10′000 ppm DMSO stock solutions by pipetting. After drying, the plates were infested with L2 larvae (10 to 15 per well). The samples were assessed for mortality and growth inhibition in comparison to untreated samples 5 days after infestation.

Myzus persicae [2] = test: Myzus persicae (green peach aphid), sucrose solution / Parafilm test; details: 120 h, test rate of 12 ppm, sucrose solution, 5 days after infestation, read-out: mortality
Source text: as §1
Test compounds were applied by pipette into 24 well plates and mixed with Sucrose solution. Application rate: 12.5 ppm. The plates were closed with a stretched parafilm. A plastic stencil with 24 holes is placed onto the plate and infested pea seedlings were placed directly on the Parafilm. The infested plate is closed with a gel blotting paper and another plastic stencil and then turned upside down. 5 days after infestation the samples were checked on mortality.

Diabrotica balteata = Diabrotica balteata (corn root worm), maize sprout test; details: 96 h, read-out: control (mortality and growth inhibition)
Protocol: Diabrotica balteata, (Corn Root Worm)
Maize sprouts, placed on an agar layer in 24-well microtiter plates were treated with aqueous test solutions prepared from 10′000 ppm DMSO stock solutions by spraying. After drying, the plates were infested with L2 larvae (6 to 10 per well). The samples were assessed for mortality and growth inhibition in comparison to untreated samples 4 days after infestation.

Euschistus heros = Euschistus heros (neotropical brown stink bug), soybean leaf test; details: 120 h, read-out: effect in at least one of the two categories (mortality or growth inhibition); for percent effect (mortality or growth inhibition) at 200 ppm: application rate 200 ppm, N2 nymphs, 5 days after infestation
Protocol: Euschistus heros (Neotropical Brown Stink Bug):
Soybean leaves on agar in 24-well microtiter plates were sprayed with aqueous test solutions prepared from 10′000 ppm DMSO stock solutions. After drying the leaves were infested with N2 nymphs. The samples were assessed for mortality and growth inhibition in comparison to untreated samples 5 days after infestation.

Tetranychus urticae = Tetranychus urticae (two-spotted spider mite), bean leaf disc test; details: foliar, 192 h, read-out: control (mortality on mixed population, mobile stages)
Protocol: Tetranychus urticae (Two-Spotted Spider Mite):
Bean leaf discs on agar in 24-well microtiter plates were sprayed with aqueous test solutions prepared from 10′000 ppm DMSO stock solutions. After drying the leaf discs were infested with a mite population of mixed ages. The samples were assessed for mortality on mixed population (mobile stages) 8 days after infestation.

Thrips tabaci = Thrips tabaci (onion thrips), sunflower leaf disc test; details: foliar, 144 h, read-out: control (mortality)
Protocol: Thrips tabaci (Onion Thrips):
Sunflower leaf discs were placed on agar in 24-well microtiter plates and sprayed with aqueous test solutions prepared from 10′000 ppm DMSO stock solutions. After drying the leaf discs were infested with a thrips population of mixed ages. The samples were assessed for mortality 6 days after infestation.

[3] = application rate 200 ppm, mixed ages, 6 DAT, read-out: mortality
[4] = application rate 200 ppm, L2 larvae, 5 days after infestation
[5] = application rate 200 ppm, L2 larvae, 4 days after infestation
[6] = application rate 200 ppm, 8 days after infestation
[7] = application rate 200 ppm, mixed ages, 6 days after infestation

Cn1nc(OC(F)F)c(C(F)(F)F)c1-n1cc(-c2ccc(Cl)c(C(=O)NC3(C#N)CC3)c2)cn1 [compound 1]
≥ 80%: mortality at 200 ppm (Myzus persicae [1]; [3]) | percent control (mortality, anti-feedant effect or growth inhibition) at 200 ppm (Spodoptera littoralis) | mortality at 200 ppm (Plutella xylostella; [4]) | mortality at 12 ppm (Myzus persicae [2]) | mortality at 200 ppm (Diabrotica balteata; [5]) | percent effect (mortality or growth inhibition) at 200 ppm (Euschistus heros)

COc1nn(C)c(-n2cc(-c3ccc(Cl)c(C(=O)NC4(C#N)CC4)c3)cn2)c1C(F)(F)F [compound 5]
≥ 80%: mortality at 200 ppm (Myzus persicae [1]; [3]) | mortality at 12 ppm (Myzus persicae [2])

Cn1nc(OCC(F)F)c(C(F)(F)F)c1-n1cc(-c2ccc(Cl)c(C(=O)NC3CC3)c2)cn1 [compound 24]
≥ 80%: mortality at 200 ppm (Myzus persicae [1]; [3]) | percent control (mortality, anti-feedant effect or growth inhibition) at 200 ppm (Spodoptera littoralis) | mortality at 200 ppm (Plutella xylostella; [4]) | mortality at 12 ppm (Myzus persicae [2]) | mortality at 200 ppm (Tetranychus urticae; [6]) | mortality at 200 ppm (Diabrotica balteata; [5]) | percent effect (mortality or growth inhibition) at 200 ppm (Euschistus heros)

Cn1nc(OCCOC(F)(F)F)c(C(F)(F)F)c1-n1cc(-c2ccc(Cl)c(C(=O)NC3CC3)c2)cn1 [compound 34]
≥ 80%: mortality at 200 ppm (Myzus persicae [1]; [3]) | percent control (mortality, anti-feedant effect or growth inhibition) at 200 ppm (Spodoptera littoralis) | mortality at 200 ppm (Plutella xylostella; [4]) | mortality at 12 ppm (Myzus persicae [2]) | mortality at 200 ppm (Tetranychus urticae; [6]) | mortality at 200 ppm (Diabrotica balteata; [5]) | percent effect (mortality or growth inhibition) at 200 ppm (Euschistus heros)

Cn1nc(OC(F)(F)CBr)c(C(F)(F)F)c1-n1cc(-c2ccc(Cl)c(C(=O)NC3(C#N)CC3)c2)cn1 [compound 41]
≥ 80%: mortality at 200 ppm (Myzus persicae [1]; [3]) | percent control (mortality, anti-feedant effect or growth inhibition) at 200 ppm (Spodoptera littoralis) | mortality at 200 ppm (Plutella xylostella; [4]) | mortality at 200 ppm (Thrips tabaci; [7]) | mortality at 200 ppm (Tetranychus urticae; [6]) | mortality at 200 ppm (Diabrotica balteata; [5]) | percent effect (mortality or growth inhibition) at 200 ppm (Euschistus heros)

Cn1nc(OC(F)(F)C(F)Br)c(C(F)(F)F)c1-n1cc(-c2ccc(Cl)c(C(=O)NC3CC3)c2)cn1 (stereo not drawn) [compound 43]
≥ 80%: mortality at 200 ppm (Myzus persicae [1]; [3]) | percent control (mortality, anti-feedant effect or growth inhibition) at 200 ppm (Spodoptera littoralis) | mortality at 200 ppm (Plutella xylostella; [4]) | mortality at 200 ppm (Thrips tabaci; [7]) | mortality at 200 ppm (Tetranychus urticae; [6]) | mortality at 200 ppm (Diabrotica balteata; [5]) | percent effect (mortality or growth inhibition) at 200 ppm (Euschistus heros)

Cn1nc(O/C(F)=C/C(F)(F)F)c(C(F)(F)F)c1-n1cc(-c2ccc(Cl)c(C(=O)NC3(C#N)CC3)c2)cn1 [compound 48]
≥ 80%: percent control (mortality, anti-feedant effect or growth inhibition) at 200 ppm (Spodoptera littoralis) | mortality at 200 ppm (Plutella xylostella; [4]) | mortality at 12 ppm (Myzus persicae [2]) | mortality at 200 ppm (Thrips tabaci; [7]) | mortality at 200 ppm (Tetranychus urticae; [6]) | mortality at 200 ppm (Diabrotica balteata; [5]) | percent effect (mortality or growth inhibition) at 200 ppm (Euschistus heros)

Cn1nc(OC(F)(F)C(F)(C(F)=C(F)C(F)(F)F)C(F)(F)F)c(C(F)(F)F)c1-n1cc(-c2ccc(Cl)c(C(=O)NC3CC3)c2)cn1 (stereo not drawn) [compound 51]
≥ 80%: percent control (mortality, anti-feedant effect or growth inhibition) at 200 ppm (Spodoptera littoralis) | mortality at 200 ppm (Plutella xylostella; [4]) | mortality at 12 ppm (Myzus persicae [2]) | mortality at 200 ppm (Thrips tabaci; [7]) | mortality at 200 ppm (Tetranychus urticae; [6]) | mortality at 200 ppm (Diabrotica balteata; [5]) | percent effect (mortality or growth inhibition) at 200 ppm (Euschistus heros)

Cn1nc(OC(F)=C(F)C(F)(F)F)c(C(F)(F)F)c1-n1cc(-c2ccc(Cl)c(C(=O)NC3CC3)c2)cn1 [compound 53]
≥ 80%: percent control (mortality, anti-feedant effect or growth inhibition) at 200 ppm (Spodoptera littoralis) | mortality at 200 ppm (Plutella xylostella; [4]) | mortality at 12 ppm (Myzus persicae [2]) | mortality at 200 ppm (Thrips tabaci; [7]) | mortality at 200 ppm (Tetranychus urticae; [6]) | mortality at 200 ppm (Diabrotica balteata; [5]) | percent effect (mortality or growth inhibition) at 200 ppm (Euschistus heros)

Cn1nc(OC(F)(F)C(F)OC(F)(F)F)c(C(F)(F)F)c1-n1cc(-c2cnc(Cl)c(C(=O)NC3(C#N)CC3)c2)cn1 (stereo not drawn) [compound 61]
≥ 80%: mortality at 200 ppm (Myzus persicae [1]; [3]) | percent control (mortality, anti-feedant effect or growth inhibition) at 200 ppm (Spodoptera littoralis) | mortality at 200 ppm (Plutella xylostella; [4]) | mortality at 200 ppm (Thrips tabaci; [7]) | mortality at 200 ppm (Tetranychus urticae; [6]) | mortality at 200 ppm (Diabrotica balteata; [5]) | percent effect (mortality or growth inhibition) at 200 ppm (Euschistus heros)

Cn1nc(OC(F)(F)C(F)OC(F)(F)F)c(C(F)(F)F)c1-n1cc(-c2cnc(Cl)c(C(=O)NC3CC3)c2)cn1 (stereo not drawn) [compound 62]
≥ 80%: mortality at 200 ppm (Myzus persicae [1]; [3]) | percent control (mortality, anti-feedant effect or growth inhibition) at 200 ppm (Spodoptera littoralis) | mortality at 200 ppm (Plutella xylostella; [4]) | mortality at 200 ppm (Thrips tabaci; [7]) | mortality at 200 ppm (Tetranychus urticae; [6]) | mortality at 200 ppm (Diabrotica balteata; [5]) | percent effect (mortality or growth inhibition) at 200 ppm (Euschistus heros)

Cn1nc(SC(F)(F)F)c(Br)c1-n1cc(-c2ccc(Cl)c(C(=O)NC3CC3)c2)cn1 [compound 63]
≥ 80%: mortality at 200 ppm (Myzus persicae [1]; [3]) | percent control (mortality, anti-feedant effect or growth inhibition) at 200 ppm (Spodoptera littoralis) | mortality at 200 ppm (Plutella xylostella; [4]) | mortality at 200 ppm (Thrips tabaci; [7]) | mortality at 200 ppm (Tetranychus urticae; [6]) | mortality at 200 ppm (Diabrotica balteata; [5]) | percent effect (mortality or growth inhibition) at 200 ppm (Euschistus heros)

Cn1nc(SC(F)(F)C(F)(F)C(F)(F)F)c(Br)c1-n1cc(-c2ccc(Cl)c(C(=O)NC3CC3)c2)cn1 [compound 64]
≥ 80%: mortality at 200 ppm (Myzus persicae [1]) | mortality at 200 ppm (Spodoptera littoralis) | mortality at 200 ppm (Plutella xylostella) | mortality at 200 ppm (Thrips tabaci) | mortality at 200 ppm (Tetranychus urticae) | mortality at 200 ppm (Diabrotica balteata) | percent control (mortality or growth inhibition) at 200 ppm (Euschistus heros)

Cn1nc(OC(F)(F)C(F)C(F)(F)F)c(C(F)(F)F)c1-n1cc(-c2cnc(Cl)c(C(=O)NC3(C#N)CC3)c2)cn1 (stereo not drawn) [compound 65]
≥ 80%: mortality at 200 ppm (Myzus persicae [1]; [3]) | mortality at 200 ppm (Plutella xylostella; [4]) | mortality at 200 ppm (Thrips tabaci; [7]) | mortality at 200 ppm (Tetranychus urticae; [6]) | mortality at 200 ppm (Diabrotica balteata; [5]) | percent effect (mortality or growth inhibition) at 200 ppm (Euschistus heros)

Cn1nc(OC(F)(F)C(F)C(F)(F)F)c(C(F)(F)F)c1-n1cc(-c2cnc(Cl)c(C(=O)NC3CC3)c2)cn1 (stereo not drawn) [compound 66]
≥ 80%: mortality at 200 ppm (Myzus persicae [1]; [3]) | mortality at 200 ppm (Plutella xylostella; [4]) | mortality at 200 ppm (Thrips tabaci; [7]) | mortality at 200 ppm (Tetranychus urticae; [6]) | percent effect (mortality or growth inhibition) at 200 ppm (Euschistus heros)
